Drawing on ChEMBL document CHEMBL1145387, “Carbonic anhydrase activators: activation of the human isoforms VII (cytosolic) and XIV (transmembrane) with amino acids and amines” (Bioorg Med Chem Lett, 2007), this text covers KA for 16 compounds.

The target of assay [1] is Carbonic anhydrase 7 (Homo sapiens) (UniProt P43166). Description: Activation of human recombinant CA7 by CO2 hydrase assay.
The target of assay [2] is Carbonic anhydrase 14 (Homo sapiens) (UniProt Q9ULX7). Put plainly: Activation of human recombinant CA14 by CO2 hydrase assay.
Sequence of Carbonic anhydrase 14 (Homo sapiens) (Q9ULX7 whole entry): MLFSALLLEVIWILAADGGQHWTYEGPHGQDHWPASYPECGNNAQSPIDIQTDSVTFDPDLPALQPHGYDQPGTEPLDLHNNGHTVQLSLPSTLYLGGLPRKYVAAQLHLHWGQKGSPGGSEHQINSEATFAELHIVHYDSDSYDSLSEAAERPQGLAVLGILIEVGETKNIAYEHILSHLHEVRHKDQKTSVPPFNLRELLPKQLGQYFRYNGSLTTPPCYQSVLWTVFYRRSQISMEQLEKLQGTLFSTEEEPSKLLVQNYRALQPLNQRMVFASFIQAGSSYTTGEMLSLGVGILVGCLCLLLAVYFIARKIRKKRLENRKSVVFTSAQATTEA
In assay [3] the target is Carbonic anhydrase 1 (Homo sapiens) (UniProt P00915). Description: Activation of human recombinant CA1 by CO2 hydrase assay.
Sequence of Carbonic anhydrase 1 (Homo sapiens) (P00915 2-261 limits assumed): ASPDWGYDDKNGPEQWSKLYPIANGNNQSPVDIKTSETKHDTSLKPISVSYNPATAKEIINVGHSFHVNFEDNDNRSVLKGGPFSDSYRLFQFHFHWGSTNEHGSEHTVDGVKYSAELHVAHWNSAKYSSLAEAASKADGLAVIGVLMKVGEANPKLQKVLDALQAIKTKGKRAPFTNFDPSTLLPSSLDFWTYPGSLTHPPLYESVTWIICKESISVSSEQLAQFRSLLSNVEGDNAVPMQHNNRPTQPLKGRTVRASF
For assay [4], the target named is Carbonic anhydrase 2 (Homo sapiens) (UniProt P00918). Description: Activation of human recombinant CA2 by CO2 hydrase assay.

Sequence of Carbonic anhydrase 7 (Homo sapiens) (P43166 whole entry): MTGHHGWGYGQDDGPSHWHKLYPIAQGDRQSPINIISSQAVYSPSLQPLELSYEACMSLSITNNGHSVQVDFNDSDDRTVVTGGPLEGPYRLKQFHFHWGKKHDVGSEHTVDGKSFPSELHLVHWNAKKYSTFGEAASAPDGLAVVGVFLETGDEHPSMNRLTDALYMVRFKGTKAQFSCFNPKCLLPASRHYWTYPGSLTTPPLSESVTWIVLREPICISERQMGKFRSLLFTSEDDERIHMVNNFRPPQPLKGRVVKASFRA

For the compound `NCCN1CCNCC1`, the KA was found to be 32.5 µM in assay [1] and 18.3 µM in assay [2].

Turning to `N[C@H](Cc1ccc(O)c(O)c1)C(=O)O`, the results for the KA in assay [1] and in assay [2] were 58.3 µM and 36.8 µM, respectively.

For the compound `NCCc1c[nH]c2ccc(O)cc12`, the KA in assay [1] was found to be 0.93 µM; in assay [2], 6.5 µM.

Take `NCCc1c[nH]cn1`: the KA came out at 37.5 µM in assay [1] and 0.01 µM in assay [2].

As for `CNC[C@@H](O)c1ccc(O)c(O)c1`, the KA in assay [3] was determined as 0.09 µM; in assay [4], 96 µM; in assay [1], 60 µM; in assay [2] it was 36.1 µM.

Consider `NCCN1CCOCC1`, for which the values for the KA in assay [1] and in assay [2] were 64.3 µM and 5.4 µM, respectively.

With `N[C@H](Cc1c[nH]cn1)C(=O)O`, the figures for the KA in assay [1] and in assay [2] were 0.71 µM and 2.37 µM, respectively.

For `Nc1ccc(C[C@H](N)C(=O)O)cc1`, the KA was 0.24 µM in assay [3], 0.15 µM in assay [4], 39.6 µM in assay [1] and 18 µM in assay [2].

In the case of `NCCc1ccc(O)c(O)c1`, the KA stood at 0.89 µM in assay [1] and 14.6 µM in assay [2].

Regarding `N[C@@H](Cc1ccc(O)cc1)C(=O)O`, the KA in assay [3] was determined as 0.02 µM; in assay [4] it was 0.011 µM; in assay [1], 20.3 µM; in assay [2], 21.8 µM.

For the compound `NCCc1ccccn1`, the KA is 27.8 µM in assay [1] and 6.9 µM in assay [2].

With `N[C@@H](Cc1c[nH]c2ccccc12)C(=O)O`, the KA came to 57.5 µM in assay [1] and 16.5 µM in assay [2].

As for `N[C@@H](Cc1ccc(O)c(O)c1)C(=O)O`, the results for the KA in assay [1] and in assay [2] were 58.3 µM and 12.1 µM, respectively.

Consider `N[C@@H](Cc1c[nH]cn1)C(=O)O`, for which the KA stood at 0.92 µM in assay [1] and 0.9 µM in assay [2].

Take `NCc1ccccn1`: the KA was 43.7 µM in assay [1] and 21.7 µM in assay [2].

For the compound `N[C@H](Cc1c[nH]c2ccccc12)C(=O)O`, the results for the KA in assay [1] and in assay [2] were 39.6 µM and 18 µM, respectively.
